Experimental data from the supplement of paper PMC13380429.

Legend:
Conditions in all cases: 72 h
[1] = test system: HepG2; experiment: relative viability EC50 (midpoint between 100% and the lowest measured viability); higher = less toxic
[2] = test system: Vero E6; experiment: as above
[3] = test system: Caco-2; experiment: as above
[4] = test system: U2OS; experiment: as above
[5] = test system: Calu-3; experiment: as above
[6] = test system: HepG2; experiment: cell viability relative to DMSO; higher = less toxic
[7] = test system: Vero E6; experiment: as above
[8] = test system: Caco-2; experiment: as above
[9] = test system: U2OS; experiment: as above
[10] = test system: Calu-3; experiment: as above
[11] = test system: HepG2; experiment: drug sensitivity score (DSS) for viability; higher = more toxic; extreme values may be limits of the assay
[12] = test system: Vero E6; experiment: as above
[13] = test system: Caco-2; experiment: as above
[14] = test system: U2OS; experiment: as above
[15] = test system: Calu-3; experiment: as above

Cc1cc(C)c2c(c1)[C@@H](N(Cc1cc(C(F)(F)F)cc(C(F)(F)F)c1)c1nnn(C)n1)CCCN2C[C@H]1CC[C@H](C(=O)O)CC1 [evacetrapib]
relative viability EC50 [1]: > 10 µM | relative viability EC50 [2]: > 10 µM | relative viability EC50 [3]: > 10 µM | relative viability EC50 [4]: > 10 µM | relative viability EC50 [5]: > 10 µM | cell viability ([6]; 1 nM): 97% | cell viability ([6]; 10 nM): 100% | cell viability ([6]; 100 nM): 95.6% | cell viability ([6]; 1000 nM): 99.5% | cell viability ([6]; 10000 nM): 104% | cell viability ([7]; 1 nM): 96.1% | cell viability ([7]; 10 nM): 97.3% | cell viability ([7]; 100 nM): 95.7% | cell viability ([7]; 1000 nM): 93.3% | cell viability ([7]; 10000 nM): 102% | cell viability ([8]; 1 nM): 90.6% | cell viability ([8]; 10 nM): 94.9% | cell viability ([8]; 100 nM): 108% | cell viability ([8]; 1000 nM): 99.8% | cell viability ([8]; 10000 nM): 97.3% | cell viability ([9]; 1 nM): 98.1% | cell viability ([9]; 10 nM): 100% | cell viability ([9]; 100 nM): 97.5% | cell viability ([9]; 1000 nM): 103% | cell viability ([9]; 10000 nM): 91.9% | cell viability ([10]; 1 nM): 97% | cell viability ([10]; 10 nM): 88.9% | cell viability ([10]; 100 nM): 100% | cell viability ([10]; 1000 nM): 96.9% | cell viability ([10]; 10000 nM): 89.9% | drug sensitivity score [11]: 0 | drug sensitivity score [12]: 0 | drug sensitivity score [13]: 0 | drug sensitivity score [14]: 0 | drug sensitivity score [15]: 0

COc1ccc(-c2cc3c(C)nc(N)nc3n([C@H]3CC[C@H](OCCO)CC3)c2=O)cn1
relative viability EC50 [1]: 0.202 µM | relative viability EC50 [2]: 0.21 µM | relative viability EC50 [3]: 0.114 µM | relative viability EC50 [4]: 0.504 µM | relative viability EC50 [5]: 0.0917 µM | cell viability ([6]; 1 nM): 104% | cell viability ([6]; 10 nM): 103% | cell viability ([6]; 100 nM): 77.5% | cell viability ([6]; 1000 nM): 28.7% | cell viability ([6]; 10000 nM): 20.1% | cell viability ([7]; 1 nM): 94% | cell viability ([7]; 10 nM): 98.4% | cell viability ([7]; 100 nM): 74.4% | cell viability ([7]; 1000 nM): 30% | cell viability ([7]; 10000 nM): 17% | cell viability ([8]; 1 nM): 92.5% | cell viability ([8]; 10 nM): 89.9% | cell viability ([8]; 100 nM): 67.1% | cell viability ([8]; 1000 nM): 27.7% | cell viability ([8]; 10000 nM): 23.4% | cell viability ([9]; 1 nM): 100% | cell viability ([9]; 10 nM): 95% | cell viability ([9]; 100 nM): 89.1% | cell viability ([9]; 1000 nM): 32.6% | cell viability ([9]; 10000 nM): 3.8% | cell viability ([10]; 1 nM): 85.3% | cell viability ([10]; 10 nM): 87.3% | cell viability ([10]; 100 nM): 56% | cell viability ([10]; 1000 nM): 19.6% | cell viability ([10]; 10000 nM): 10% | drug sensitivity score [11]: 15.9 | drug sensitivity score [12]: 16 | drug sensitivity score [13]: 17.2 | drug sensitivity score [14]: 14.2 | drug sensitivity score [15]: 20.8

O=C(O)[C@H]1CCCN(CCC=C(c2ccccc2)c2ccccc2)C1 (racemic)
relative viability EC50 [1]: > 10 µM | relative viability EC50 [2]: > 10 µM | relative viability EC50 [3]: > 10 µM | relative viability EC50 [4]: > 10 µM | relative viability EC50 [5]: > 10 µM | cell viability ([6]; 1 nM): 107% | cell viability ([6]; 10 nM): 94.5% | cell viability ([6]; 100 nM): 83.9% | cell viability ([6]; 1000 nM): 108% | cell viability ([6]; 10000 nM): 99.2% | cell viability ([7]; 1 nM): 99.6% | cell viability ([7]; 10 nM): 100% | cell viability ([7]; 100 nM): 101% | cell viability ([7]; 1000 nM): 102% | cell viability ([7]; 10000 nM): 103% | cell viability ([8]; 1 nM): 95.9% | cell viability ([8]; 10 nM): 98.7% | cell viability ([8]; 100 nM): 102% | cell viability ([8]; 1000 nM): 95.7% | cell viability ([8]; 10000 nM): 94.9% | cell viability ([9]; 1 nM): 98.6% | cell viability ([9]; 10 nM): 98.2% | cell viability ([9]; 100 nM): 98.1% | cell viability ([9]; 1000 nM): 102% | cell viability ([9]; 10000 nM): 91.3% | cell viability ([10]; 1 nM): 96.8% | cell viability ([10]; 10 nM): 98.5% | cell viability ([10]; 100 nM): 111% | cell viability ([10]; 1000 nM): 90.9% | cell viability ([10]; 10000 nM): 111% | drug sensitivity score [11]: 0 | drug sensitivity score [12]: 0 | drug sensitivity score [13]: 0 | drug sensitivity score [14]: 0 | drug sensitivity score [15]: 0

O=c1[nH]cnc2nc[nH]c12 [hypoxanthine]
relative viability EC50 [1]: > 10 µM | relative viability EC50 [2]: > 10 µM | relative viability EC50 [3]: > 10 µM | relative viability EC50 [4]: > 10 µM | relative viability EC50 [5]: > 10 µM | cell viability ([6]; 1 nM): 100% | cell viability ([6]; 10 nM): 102% | cell viability ([6]; 100 nM): 97.7% | cell viability ([6]; 1000 nM): 95.5% | cell viability ([6]; 10000 nM): 94% | cell viability ([7]; 1 nM): 105% | cell viability ([7]; 10 nM): 105% | cell viability ([7]; 100 nM): 102% | cell viability ([7]; 1000 nM): 104% | cell viability ([7]; 10000 nM): 96.5% | cell viability ([8]; 1 nM): 101% | cell viability ([8]; 10 nM): 87% | cell viability ([8]; 100 nM): 102% | cell viability ([8]; 1000 nM): 103% | cell viability ([8]; 10000 nM): 112% | cell viability ([9]; 1 nM): 98% | cell viability ([9]; 10 nM): 97.8% | cell viability ([9]; 100 nM): 102% | cell viability ([9]; 1000 nM): 102% | cell viability ([9]; 10000 nM): 113% | cell viability ([10]; 1 nM): 98.1% | cell viability ([10]; 10 nM): 90.3% | cell viability ([10]; 100 nM): 102% | cell viability ([10]; 1000 nM): 95.4% | cell viability ([10]; 10000 nM): 102% | drug sensitivity score [11]: 0 | drug sensitivity score [12]: 0 | drug sensitivity score [13]: 0 | drug sensitivity score [14]: 0 | drug sensitivity score [15]: 0

NC(=O)CN1CC(O)CC1=O (stereo not given) [oxiracetam]
relative viability EC50 [1]: > 10 µM | relative viability EC50 [2]: > 10 µM | relative viability EC50 [3]: > 10 µM | relative viability EC50 [4]: > 10 µM | relative viability EC50 [5]: > 10 µM | cell viability ([6]; 1 nM): 92.6% | cell viability ([6]; 10 nM): 101% | cell viability ([6]; 100 nM): 95.8% | cell viability ([6]; 1000 nM): 104% | cell viability ([6]; 10000 nM): 94.8% | cell viability ([7]; 1 nM): 98.1% | cell viability ([7]; 10 nM): 101% | cell viability ([7]; 100 nM): 104% | cell viability ([7]; 1000 nM): 99.2% | cell viability ([7]; 10000 nM): 97.1% | cell viability ([8]; 1 nM): 98.9% | cell viability ([8]; 10 nM): 111% | cell viability ([8]; 100 nM): 94.8% | cell viability ([8]; 1000 nM): 99.1% | cell viability ([8]; 10000 nM): 101% | cell viability ([9]; 1 nM): 107% | cell viability ([9]; 10 nM): 103% | cell viability ([9]; 100 nM): 97.5% | cell viability ([9]; 1000 nM): 100% | cell viability ([9]; 10000 nM): 98.9% | cell viability ([10]; 1 nM): 101% | cell viability ([10]; 10 nM): 98% | cell viability ([10]; 100 nM): 102% | cell viability ([10]; 1000 nM): 93.9% | cell viability ([10]; 10000 nM): 102% | drug sensitivity score [11]: 0 | drug sensitivity score [12]: 0 | drug sensitivity score [13]: 0 | drug sensitivity score [14]: 0 | drug sensitivity score [15]: 0

CCCCCNCC(N)=O [milacemide]
relative viability EC50 [1]: > 10 µM | relative viability EC50 [2]: > 10 µM | relative viability EC50 [3]: > 10 µM | relative viability EC50 [4]: > 10 µM | relative viability EC50 [5]: > 10 µM | cell viability ([6]; 1 nM): 109% | cell viability ([6]; 10 nM): 97.9% | cell viability ([6]; 100 nM): 95.2% | cell viability ([6]; 1000 nM): 94.6% | cell viability ([6]; 10000 nM): 110% | cell viability ([7]; 1 nM): 99.9% | cell viability ([7]; 10 nM): 105% | cell viability ([7]; 100 nM): 104% | cell viability ([7]; 1000 nM): 97.3% | cell viability ([7]; 10000 nM): 101% | cell viability ([8]; 1 nM): 100% | cell viability ([8]; 10 nM): 90.8% | cell viability ([8]; 100 nM): 91.4% | cell viability ([8]; 1000 nM): 99.6% | cell viability ([8]; 10000 nM): 95.5% | cell viability ([9]; 1 nM): 103% | cell viability ([9]; 10 nM): 100% | cell viability ([9]; 100 nM): 98.3% | cell viability ([9]; 1000 nM): 101% | cell viability ([9]; 10000 nM): 98.6% | cell viability ([10]; 1 nM): 108% | cell viability ([10]; 10 nM): 113% | cell viability ([10]; 100 nM): 107% | cell viability ([10]; 1000 nM): 99.6% | cell viability ([10]; 10000 nM): 95% | drug sensitivity score [11]: 0 | drug sensitivity score [12]: 0 | drug sensitivity score [13]: 0 | drug sensitivity score [14]: 0 | drug sensitivity score [15]: 0
